Key:
Experiment in all cases: KINOMEscan
Format in all cases: binding
Details in all cases: read-out: % control activity remaining
[1] = target: T1, TLK1 (Homo sapiens, UniProt Q9UKI8)
T1 construct: purchased Eurofins DiscoverX KINOMEscan
T1 sequence (Q9UKI8 1-766): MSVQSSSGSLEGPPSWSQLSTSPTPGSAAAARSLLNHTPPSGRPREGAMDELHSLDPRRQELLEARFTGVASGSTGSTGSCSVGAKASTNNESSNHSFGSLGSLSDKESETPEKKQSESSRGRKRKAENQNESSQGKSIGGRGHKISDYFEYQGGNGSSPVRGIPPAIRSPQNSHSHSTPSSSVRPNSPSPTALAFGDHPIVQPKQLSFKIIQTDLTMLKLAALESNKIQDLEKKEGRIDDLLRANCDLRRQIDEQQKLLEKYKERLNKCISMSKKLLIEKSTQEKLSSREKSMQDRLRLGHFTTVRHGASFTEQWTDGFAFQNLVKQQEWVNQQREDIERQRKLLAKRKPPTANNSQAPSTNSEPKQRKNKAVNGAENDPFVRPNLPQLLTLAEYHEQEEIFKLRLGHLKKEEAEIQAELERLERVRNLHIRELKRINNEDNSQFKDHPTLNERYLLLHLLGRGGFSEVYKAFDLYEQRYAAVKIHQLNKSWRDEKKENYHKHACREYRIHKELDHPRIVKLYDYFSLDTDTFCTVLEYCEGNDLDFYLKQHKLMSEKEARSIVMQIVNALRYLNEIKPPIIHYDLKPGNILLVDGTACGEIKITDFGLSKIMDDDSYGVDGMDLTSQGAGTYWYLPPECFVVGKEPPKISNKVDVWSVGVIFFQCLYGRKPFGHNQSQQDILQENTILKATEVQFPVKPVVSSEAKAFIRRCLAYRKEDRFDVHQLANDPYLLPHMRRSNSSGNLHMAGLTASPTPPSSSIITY

[2] = target: T2, TRPM6 (Homo sapiens, UniProt Q9BX84)
T2 construct: purchased Eurofins DiscoverX KINOMEscan

[3] = target: T3, HUNK (Homo sapiens, UniProt P57058)
T3 construct: purchased Eurofins DiscoverX KINOMEscan
T3 sequence (P57058 1-714): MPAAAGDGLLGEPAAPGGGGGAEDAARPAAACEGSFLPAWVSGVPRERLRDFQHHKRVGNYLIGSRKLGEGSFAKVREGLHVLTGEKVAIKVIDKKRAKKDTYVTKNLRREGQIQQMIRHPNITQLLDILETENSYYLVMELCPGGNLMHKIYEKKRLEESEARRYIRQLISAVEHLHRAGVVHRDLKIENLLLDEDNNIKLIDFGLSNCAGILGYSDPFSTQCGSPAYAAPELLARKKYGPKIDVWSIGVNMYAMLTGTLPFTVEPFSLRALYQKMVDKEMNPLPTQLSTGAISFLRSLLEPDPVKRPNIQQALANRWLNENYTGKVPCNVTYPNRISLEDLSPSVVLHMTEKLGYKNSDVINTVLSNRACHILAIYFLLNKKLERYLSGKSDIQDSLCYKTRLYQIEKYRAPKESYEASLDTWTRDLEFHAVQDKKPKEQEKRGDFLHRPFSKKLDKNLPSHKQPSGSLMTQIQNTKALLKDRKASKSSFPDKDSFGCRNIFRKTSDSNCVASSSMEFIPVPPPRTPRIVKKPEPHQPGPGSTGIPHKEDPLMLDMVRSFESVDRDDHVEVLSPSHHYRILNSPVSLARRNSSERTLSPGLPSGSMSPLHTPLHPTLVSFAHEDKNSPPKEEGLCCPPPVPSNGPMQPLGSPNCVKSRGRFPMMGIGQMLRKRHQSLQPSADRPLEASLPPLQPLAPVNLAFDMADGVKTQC

[4] = target: T4, BMPR1A (Homo sapiens, UniProt P36894)
T4 construct: purchased Eurofins DiscoverX KINOMEscan

[5] = target: T5, RAF1 (Homo sapiens, UniProt P04049)
T5 construct: purchased Eurofins DiscoverX KINOMEscan

[6] = target: T6, TIE1 (Homo sapiens, UniProt P35590)
T6 construct: purchased Eurofins DiscoverX KINOMEscan

[7] = target: T7, TAOK1 (Homo sapiens, UniProt Q7L7X3)
T7 construct: purchased Eurofins DiscoverX KINOMEscan
T7 sequence (Q7L7X3 1-1001): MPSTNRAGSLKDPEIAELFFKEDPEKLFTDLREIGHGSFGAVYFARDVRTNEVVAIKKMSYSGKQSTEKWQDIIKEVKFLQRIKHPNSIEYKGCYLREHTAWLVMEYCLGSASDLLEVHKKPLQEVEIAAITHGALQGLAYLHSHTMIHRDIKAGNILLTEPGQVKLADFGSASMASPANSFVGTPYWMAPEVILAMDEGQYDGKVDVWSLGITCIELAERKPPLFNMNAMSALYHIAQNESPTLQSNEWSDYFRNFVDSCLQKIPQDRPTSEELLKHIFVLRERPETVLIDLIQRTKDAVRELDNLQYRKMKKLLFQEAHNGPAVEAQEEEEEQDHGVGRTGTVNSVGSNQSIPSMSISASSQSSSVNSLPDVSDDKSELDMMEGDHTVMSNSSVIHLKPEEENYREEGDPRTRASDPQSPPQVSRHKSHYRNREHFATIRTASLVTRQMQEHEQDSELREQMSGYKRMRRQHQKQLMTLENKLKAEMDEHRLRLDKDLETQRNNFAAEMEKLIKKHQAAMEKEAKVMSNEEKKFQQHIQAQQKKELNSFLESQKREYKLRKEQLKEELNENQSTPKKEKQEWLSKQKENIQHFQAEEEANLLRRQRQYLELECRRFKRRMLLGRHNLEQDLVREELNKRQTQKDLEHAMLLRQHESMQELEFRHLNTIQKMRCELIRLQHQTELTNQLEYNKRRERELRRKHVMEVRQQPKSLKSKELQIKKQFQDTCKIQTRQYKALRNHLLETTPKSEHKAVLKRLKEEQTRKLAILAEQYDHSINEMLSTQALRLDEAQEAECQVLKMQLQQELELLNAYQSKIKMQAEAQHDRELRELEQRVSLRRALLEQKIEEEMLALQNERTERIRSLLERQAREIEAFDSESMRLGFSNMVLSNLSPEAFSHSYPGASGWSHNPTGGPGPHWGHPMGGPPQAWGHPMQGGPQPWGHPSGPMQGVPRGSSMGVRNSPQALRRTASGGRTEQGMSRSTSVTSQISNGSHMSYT

[8] = target: T8, SRC (Homo sapiens, UniProt P12931)
T8 construct: purchased Eurofins DiscoverX KINOMEscan
T8 sequence (P12931 whole entry): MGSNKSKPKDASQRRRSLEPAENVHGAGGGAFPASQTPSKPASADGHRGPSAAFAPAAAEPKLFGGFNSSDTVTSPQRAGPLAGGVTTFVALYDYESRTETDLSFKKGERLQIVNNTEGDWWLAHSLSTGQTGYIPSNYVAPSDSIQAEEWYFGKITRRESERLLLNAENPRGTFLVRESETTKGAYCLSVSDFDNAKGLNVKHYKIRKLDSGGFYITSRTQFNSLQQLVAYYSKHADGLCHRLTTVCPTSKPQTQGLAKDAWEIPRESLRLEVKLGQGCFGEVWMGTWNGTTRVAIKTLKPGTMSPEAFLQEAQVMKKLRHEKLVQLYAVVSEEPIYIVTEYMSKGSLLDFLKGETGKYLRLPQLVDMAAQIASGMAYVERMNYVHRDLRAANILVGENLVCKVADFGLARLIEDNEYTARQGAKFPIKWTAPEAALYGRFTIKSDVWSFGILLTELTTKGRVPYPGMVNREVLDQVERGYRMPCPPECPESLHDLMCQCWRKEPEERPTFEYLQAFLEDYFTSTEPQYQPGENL

T2 sequence (Q9BX84 whole entry): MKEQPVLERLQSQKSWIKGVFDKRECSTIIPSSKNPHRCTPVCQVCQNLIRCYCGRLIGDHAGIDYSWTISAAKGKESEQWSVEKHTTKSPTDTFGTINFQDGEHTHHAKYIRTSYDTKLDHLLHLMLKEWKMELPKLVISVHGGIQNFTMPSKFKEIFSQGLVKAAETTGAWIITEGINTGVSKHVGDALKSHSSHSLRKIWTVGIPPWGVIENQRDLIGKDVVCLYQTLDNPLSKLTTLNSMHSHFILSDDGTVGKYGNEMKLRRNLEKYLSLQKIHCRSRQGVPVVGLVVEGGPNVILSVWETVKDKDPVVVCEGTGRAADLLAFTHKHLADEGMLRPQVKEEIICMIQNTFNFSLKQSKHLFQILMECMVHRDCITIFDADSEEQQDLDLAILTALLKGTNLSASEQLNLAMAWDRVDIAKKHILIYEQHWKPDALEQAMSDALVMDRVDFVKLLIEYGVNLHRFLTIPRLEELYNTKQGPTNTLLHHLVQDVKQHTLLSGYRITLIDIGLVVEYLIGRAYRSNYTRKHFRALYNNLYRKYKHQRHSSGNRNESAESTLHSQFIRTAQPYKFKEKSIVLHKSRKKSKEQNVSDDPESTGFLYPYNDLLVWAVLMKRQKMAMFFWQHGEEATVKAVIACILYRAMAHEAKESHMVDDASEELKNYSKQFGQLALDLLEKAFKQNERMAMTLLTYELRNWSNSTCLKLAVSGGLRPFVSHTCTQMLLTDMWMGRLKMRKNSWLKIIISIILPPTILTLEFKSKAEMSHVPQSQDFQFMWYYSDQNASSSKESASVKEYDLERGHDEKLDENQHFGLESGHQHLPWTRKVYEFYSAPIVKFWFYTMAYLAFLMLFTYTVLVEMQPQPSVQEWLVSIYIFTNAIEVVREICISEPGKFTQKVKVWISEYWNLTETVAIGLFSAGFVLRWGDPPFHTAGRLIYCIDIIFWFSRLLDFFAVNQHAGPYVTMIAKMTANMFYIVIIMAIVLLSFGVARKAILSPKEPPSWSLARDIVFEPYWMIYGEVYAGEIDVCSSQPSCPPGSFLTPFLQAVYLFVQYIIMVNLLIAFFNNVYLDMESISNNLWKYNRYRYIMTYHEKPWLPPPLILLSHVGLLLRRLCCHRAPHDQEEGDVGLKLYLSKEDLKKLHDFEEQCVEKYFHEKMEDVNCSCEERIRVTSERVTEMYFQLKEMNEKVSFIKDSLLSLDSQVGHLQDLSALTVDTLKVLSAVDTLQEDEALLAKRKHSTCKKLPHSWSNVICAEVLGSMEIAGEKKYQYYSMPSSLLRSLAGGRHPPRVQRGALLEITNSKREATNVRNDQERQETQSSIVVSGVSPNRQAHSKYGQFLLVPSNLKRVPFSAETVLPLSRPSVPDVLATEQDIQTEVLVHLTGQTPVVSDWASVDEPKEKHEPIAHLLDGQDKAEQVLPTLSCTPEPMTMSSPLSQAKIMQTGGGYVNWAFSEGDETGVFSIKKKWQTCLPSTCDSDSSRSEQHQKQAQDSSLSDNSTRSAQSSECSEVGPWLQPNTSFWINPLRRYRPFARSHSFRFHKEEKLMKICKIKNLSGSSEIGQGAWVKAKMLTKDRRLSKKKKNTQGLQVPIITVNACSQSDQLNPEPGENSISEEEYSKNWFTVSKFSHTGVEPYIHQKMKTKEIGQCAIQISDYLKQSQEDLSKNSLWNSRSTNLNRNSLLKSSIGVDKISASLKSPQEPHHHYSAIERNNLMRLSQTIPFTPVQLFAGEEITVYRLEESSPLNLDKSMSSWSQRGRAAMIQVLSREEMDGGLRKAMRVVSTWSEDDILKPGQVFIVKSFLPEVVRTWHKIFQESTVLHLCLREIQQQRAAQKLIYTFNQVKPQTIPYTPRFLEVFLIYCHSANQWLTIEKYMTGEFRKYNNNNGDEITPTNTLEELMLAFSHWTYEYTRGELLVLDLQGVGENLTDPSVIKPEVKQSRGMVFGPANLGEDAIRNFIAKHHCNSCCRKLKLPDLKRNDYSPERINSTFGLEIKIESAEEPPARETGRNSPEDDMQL
T5 sequence (P04049 whole entry): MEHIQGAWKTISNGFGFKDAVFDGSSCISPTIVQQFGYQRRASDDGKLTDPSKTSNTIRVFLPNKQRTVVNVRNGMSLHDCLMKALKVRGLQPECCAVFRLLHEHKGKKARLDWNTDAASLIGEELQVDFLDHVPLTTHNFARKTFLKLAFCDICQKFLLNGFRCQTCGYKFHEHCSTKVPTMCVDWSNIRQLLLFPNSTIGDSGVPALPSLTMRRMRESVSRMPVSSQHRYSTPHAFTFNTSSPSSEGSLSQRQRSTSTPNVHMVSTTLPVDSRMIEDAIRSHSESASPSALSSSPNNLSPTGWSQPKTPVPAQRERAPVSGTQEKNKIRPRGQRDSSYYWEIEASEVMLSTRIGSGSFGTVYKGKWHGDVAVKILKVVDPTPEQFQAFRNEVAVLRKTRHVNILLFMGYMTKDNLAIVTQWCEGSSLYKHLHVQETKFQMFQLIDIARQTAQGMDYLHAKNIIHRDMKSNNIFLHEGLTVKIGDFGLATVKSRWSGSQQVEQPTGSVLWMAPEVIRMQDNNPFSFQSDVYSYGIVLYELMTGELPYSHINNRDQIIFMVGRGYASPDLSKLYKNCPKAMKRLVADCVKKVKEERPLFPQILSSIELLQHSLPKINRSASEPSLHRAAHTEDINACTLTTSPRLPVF
T6 sequence (P35590 22-1138): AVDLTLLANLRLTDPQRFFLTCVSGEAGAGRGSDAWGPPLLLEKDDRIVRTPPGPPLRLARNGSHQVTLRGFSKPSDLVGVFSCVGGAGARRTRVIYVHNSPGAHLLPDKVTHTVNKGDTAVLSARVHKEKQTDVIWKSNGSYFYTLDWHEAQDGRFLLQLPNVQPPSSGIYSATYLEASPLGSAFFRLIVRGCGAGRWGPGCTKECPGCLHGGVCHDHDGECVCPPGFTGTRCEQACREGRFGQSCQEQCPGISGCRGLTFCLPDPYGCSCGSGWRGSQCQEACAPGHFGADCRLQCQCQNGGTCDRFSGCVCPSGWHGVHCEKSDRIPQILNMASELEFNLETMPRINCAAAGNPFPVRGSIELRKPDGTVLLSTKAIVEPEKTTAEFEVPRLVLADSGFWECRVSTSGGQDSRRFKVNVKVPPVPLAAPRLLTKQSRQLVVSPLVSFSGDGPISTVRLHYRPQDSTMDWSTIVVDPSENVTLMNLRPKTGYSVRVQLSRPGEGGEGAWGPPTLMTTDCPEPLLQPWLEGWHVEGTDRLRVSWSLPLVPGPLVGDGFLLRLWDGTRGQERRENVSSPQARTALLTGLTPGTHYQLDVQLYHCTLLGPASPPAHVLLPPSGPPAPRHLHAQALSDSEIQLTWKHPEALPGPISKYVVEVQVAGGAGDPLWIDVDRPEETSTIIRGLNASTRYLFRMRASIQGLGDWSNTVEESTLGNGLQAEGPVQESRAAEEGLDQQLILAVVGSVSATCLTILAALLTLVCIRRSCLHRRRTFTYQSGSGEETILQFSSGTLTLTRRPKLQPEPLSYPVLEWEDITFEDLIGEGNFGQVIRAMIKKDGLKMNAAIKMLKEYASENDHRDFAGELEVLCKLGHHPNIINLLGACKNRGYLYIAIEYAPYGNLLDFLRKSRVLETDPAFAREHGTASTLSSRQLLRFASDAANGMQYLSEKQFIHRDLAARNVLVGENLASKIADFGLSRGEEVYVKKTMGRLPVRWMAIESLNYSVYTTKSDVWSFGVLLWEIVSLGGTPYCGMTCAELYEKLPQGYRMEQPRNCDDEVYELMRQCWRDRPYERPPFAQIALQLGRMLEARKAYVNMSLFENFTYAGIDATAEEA
T4 sequence (P36894 24-532): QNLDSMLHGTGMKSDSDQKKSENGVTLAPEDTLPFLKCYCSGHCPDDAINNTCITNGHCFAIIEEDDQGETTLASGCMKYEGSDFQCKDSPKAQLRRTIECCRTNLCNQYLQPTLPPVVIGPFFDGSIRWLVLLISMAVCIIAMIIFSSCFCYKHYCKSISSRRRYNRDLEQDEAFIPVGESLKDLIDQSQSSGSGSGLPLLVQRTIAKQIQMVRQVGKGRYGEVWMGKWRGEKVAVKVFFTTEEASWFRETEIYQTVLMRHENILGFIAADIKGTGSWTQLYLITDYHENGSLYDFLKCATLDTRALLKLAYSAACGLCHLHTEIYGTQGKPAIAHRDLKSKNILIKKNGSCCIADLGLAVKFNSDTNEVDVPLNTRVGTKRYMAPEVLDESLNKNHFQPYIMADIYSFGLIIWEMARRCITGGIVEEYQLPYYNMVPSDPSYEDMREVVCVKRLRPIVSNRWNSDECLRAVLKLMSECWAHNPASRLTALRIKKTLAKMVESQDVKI

| Structure (SMILES) | remaining binding at 1 µM [1] | remaining binding at 1 µM [2] | remaining binding at 1 µM [3] | remaining binding at 1 µM [4] | remaining binding at 1 µM [5] | remaining binding at 1 µM [6] | remaining binding at 1 µM [7] | remaining binding at 1 µM [8] |
| --- | --- | --- | --- | --- | --- | --- | --- | --- |
| CN1CCC(CNc2cc(Cl)nn3c(-c4cc5nc(Nc6ccccc6)[nH]c5cc4F)cnc23)CC1 [compound 31, 6-Chloro-3-(6-fluoro-2-(phenylamino)-1H-benzo[d]imidazol-5-yl)-N-((1-methylpiperidin-4-yl)methyl)imidazo[1,2-b]pyridazin-8-amine] | 93% | 85% | 92% | 100% | 100% | 84% | 75% | 100% |
| O=C(CN1CCOCC1)N[C@H]1CC[C@H](Nc2cc(Cl)nn3c(-c4ccc5[nH]ncc5c4)cnc23)CC1 [compound 26] | 87% | 92% | 100% | 86% | 100% | 67% | 85% | 100% |
| Clc1cc(NCC2CC2)c2ncc(-c3ccc4[nH]ncc4c3)n2n1 [compound 2, 6-Chloro-N-(cyclopropylmethyl)-3-(1H-indazol-5-yl)imidazo[1,2-b]pyridazin-8-amine] | 96% | 100% | 90% | 95% | 99% | 99% | 93% | 100% |
